Measured values reported in paper PMC8237303 (Heliyon, 2021).
pIC50, pKi: −log10 of the molar value.

How the values were obtained:
[1] = test system: K channel KA; assay: [125I]-Dendrotoxin binding assay; conditions: 0.1 mM l-menthol; Rat cerebral cortex
[2] = test system: Bombesin receptor (Non-selective); assay: [125I]-Bombesin binding assay; conditions: 0.1 mM l-menthol; Rat whole brain
[3] = test system: 88 different ligands for specific biomolecules; assay: Binding assay, 88 different ligands; conditions: 0.1 mM l-menthol
[4] = target: Dopamine D5 receptor (Human) (Homo sapiens, UniProt P21918); assay: [3H]SCH 23390 binding assay; conditions: 0.1 mM l-menthol; Human recombinant
[5] = target: Ca Channel (Type N) (Rattus norvegicus, UniProt Q02294); assay type: binding
[6] = target: α2A-Adrenergic receptor (Human) (Homo sapiens, UniProt P08913); assay: [3H]-Rauwolscine hydrochloride binding assay; conditions: 0.1 mM l-menthol; Human recombinant
[7] = test system: Glutamate (NMDA polyamine site); assay: [3H]-Ifenprodil binding assay; conditions: 0.1 mM l-menthol; Rat cerebral cortex
[8] = target: Serotonin 5HT2A receptor (Human) (Homo sapiens, UniProt P28223); assay: [3H]-Ketanserin hydrochloride binding assay; conditions: 0.1 mM l-menthol; Human recombinant
[9] = test system: Nicotinic receptor (Human); assay: [3H]-; assay type: binding; conditions: 0.1 mM l-menthol; Human receptor (Non-recombinant)
[10] = test system: GABA A receptor (Agonist site); assay: [3H]-Muscimol binding assay; conditions: 0.1 mM l-menthol; Rat cerebellum
[11] = test system: Na Channel; assay type: binding; conditions: 0.1 mM l-menthol; Rat whole brain
[12] = test system: PAF receptor; assay: 1-O-Hexadecyl-[3H]-Platelet Activating Factor; assay type: binding; conditions: 0.1 mM l-menthol; Rabbit platelet
[13] = target: Adenosine A3 receptor (Human) (Homo sapiens, UniProt P0DMS8); assay: [125I]-AB-MECA binding assay; conditions: 0.1 mM l-menthol; Human recombinant
[14] = target: Serotonin transporter (Human) (Homo sapiens, UniProt P31645); assay: [3H]-Imipramine hydrochloride binding assay; conditions: 0.1 mM l-menthol; Human recombinant
[15] = target: α2B-Adrenergic receptor (Human) (Homo sapiens, UniProt P18089); assay type: binding
[16] = target: Bradykinin B1 receptor (Human) (Homo sapiens, UniProt P46663); assay: [3H]-Kallidin; assay type: binding; conditions: 0.1 mM l-menthol; Human recombinant
[17] = target: Vasopressin V1B receptor (Human) (Homo sapiens, UniProt P47901); assay: [3H]-Vasopressin, 8-L-Arginine binding assay; conditions: 0.1 mM l-menthol; Human recombinant
[18] = target: α1A-Adrenergic receptor (Rattus norvegicus, UniProt P43140); assay: [3H]-Prazosin binding assay; conditions: 0.1 mM l-menthol; Rat submandibular gland
[19] = target: Neuropeptide Y1 receptor (Human) (Homo sapiens, UniProt P25929); assay: [125I]-Peptide YY; assay type: binding; conditions: 0.1 mM l-menthol; Human receptor (Non-recombinant)
[20] = target: Adenosine transporter (Human) (Homo sapiens, UniProt Q99808); assay: [3H]-S-; assay type: binding; conditions: 0.1 mM l-menthol; Human receptor
[21] = target: α2C-Adrenergic receptor (Human) (Homo sapiens, UniProt P18825); assay: [3H]-Rauwolscine hydrochloride binding assay; conditions: 0.1 mM l-menthol; Human recombinant
[22] = target: Angiotensin AT1 receptor (Human) (Homo sapiens, UniProt P30556); assay: [125I]-Angiotensin II; assay type: binding; conditions: 0.1 mM l-menthol; Human recombinant
[23] = target: Muscarinic M5 receptor (Human) (Homo sapiens, UniProt P08912); assay: [3H]-Scopolamine Methyl Chloride binding assay; conditions: 0.1 mM l-menthol; Human recombinant
[24] = target: Opiate μ receptor (Human) (Homo sapiens, UniProt P35372); assay: [3H]-Diprenorphine binding assay; conditions: 0.1 mM l-menthol; Human recombinant
[25] = target: Vasopressin V2 receptor (Human) (Homo sapiens, UniProt P30518); assay: [3H]-Vasopressin, 8-L-Arginine binding assay; conditions: 0.1 mM l-menthol; Human recombinant
[26] = target: β2-Adrenergic receptor (Human) (Homo sapiens, UniProt P07550); assay: [3H]-; assay type: binding; conditions: 0.1 mM l-menthol; Human recombinant
[27] = target: Norepinephrine transporter (Human) (Homo sapiens, UniProt P23975); assay: [3H]-Nisoxetine hydrochloride binding assay; conditions: 0.1 mM l-menthol; Human recombinant
[28] = target: Serotonin 5HT1A receptor (Human) (Homo sapiens, UniProt P08908); assay: [3H]-8-Hydreoxy-DPAT binding assay; conditions: 0.1 mM l-menthol; Human recombinant
[29] = test system: GABA A receptor (Benzodiazepine site); assay: [3H]-Flunitrazepam binding assay; conditions: 0.1 mM l-menthol; Rat whole brain
[30] = target: Neurokinin NK2 receptor (Human) (Homo sapiens, UniProt P21452); assay: [3H]-SR 48968 binding assay; conditions: 0.1 mM l-menthol; Human recombinant
[31] = target: CCK A receptor (Human) (Homo sapiens, UniProt P32238); assay: [125I]-Cholecystokinin Octapeptide binding assay; conditions: 0.1 mM l-menthol; Human recombinant
[32] = target: VIP 1 receptor (Human) (Homo sapiens, UniProt P32241); assay: [125I]-Vasoactive Intestinal Polypeptide binding assay; conditions: 0.1 mM l-menthol; Human receptor (Non-recombinant)
[33] = target: Angiotensin AT2 receptor (Human) (Homo sapiens, UniProt P50052); assay: [125I]-CGP-42112A binding assay; conditions: 0.1 mM l-menthol; Human recombinant
[34] = target: Opiate ORL1 receptor (Human) (Homo sapiens, UniProt P41146); assay: [3H]-Nociceptin binding assay; conditions: 0.1 mM l-menthol; Human recombinant
[35] = test system: Imidazoline receptor (Central); assay: [3H]RX 781094; assay type: binding; conditions: 0.1 mM l-menthol; Rat cerebral cortex
[36] = target: Vasopressin V1 receptor (Rattus norvegicus, UniProt P30560); assay: [3H]-Vasopressin, 8-L-Arginine binding assay; conditions: 0.1 mM l-menthol; Rat liver
[37] = test system: Glutamate receptor (NMDA agonist site); assay: [3H]-CGP-39653 binding assay; conditions: 0.1 mM l-menthol; Rat cerebral cortex
[38] = target: Histamine H1 receptor (Human) (Homo sapiens, UniProt P35367); assay: [3H]-Pyrilamine binding assay; conditions: 0.1 mM l-menthol; Human recombinant
[39] = target: α1B-Adrenergic receptor (Rattus norvegicus, UniProt P15823); assay: [3H]-Prazosin binding assay; conditions: 0.1 mM l-menthol; Rat liver
[40] = test system: GABA A receptor (Picrotoxin site); assay: [3H]-EBOB binding assay; parameters: species or system Rat
[41] = target: Opiate κ receptor (Human) (Homo sapiens, UniProt P41145); assay type: binding; conditions: 0.1 mM l-menthol
[42] = target: Opiate δ receptor (Human) (Homo sapiens, UniProt P41143); assay: [3H]-Naltrindole binding assay; conditions: 0.1 mM l-menthol; Human recombinant
Sequence of Opiate δ receptor (Human) (P41143 whole entry): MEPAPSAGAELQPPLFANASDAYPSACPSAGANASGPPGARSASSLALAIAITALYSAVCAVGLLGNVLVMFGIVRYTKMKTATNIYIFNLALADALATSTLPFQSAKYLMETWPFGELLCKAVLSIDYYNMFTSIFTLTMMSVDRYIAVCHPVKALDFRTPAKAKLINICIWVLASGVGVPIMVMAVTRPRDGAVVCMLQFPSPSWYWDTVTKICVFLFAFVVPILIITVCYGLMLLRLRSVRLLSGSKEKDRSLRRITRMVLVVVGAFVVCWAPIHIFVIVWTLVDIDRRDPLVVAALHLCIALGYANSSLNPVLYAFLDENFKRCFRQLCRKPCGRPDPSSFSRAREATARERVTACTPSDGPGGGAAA

Sequence of β2-Adrenergic receptor (Human) (P07550 whole entry): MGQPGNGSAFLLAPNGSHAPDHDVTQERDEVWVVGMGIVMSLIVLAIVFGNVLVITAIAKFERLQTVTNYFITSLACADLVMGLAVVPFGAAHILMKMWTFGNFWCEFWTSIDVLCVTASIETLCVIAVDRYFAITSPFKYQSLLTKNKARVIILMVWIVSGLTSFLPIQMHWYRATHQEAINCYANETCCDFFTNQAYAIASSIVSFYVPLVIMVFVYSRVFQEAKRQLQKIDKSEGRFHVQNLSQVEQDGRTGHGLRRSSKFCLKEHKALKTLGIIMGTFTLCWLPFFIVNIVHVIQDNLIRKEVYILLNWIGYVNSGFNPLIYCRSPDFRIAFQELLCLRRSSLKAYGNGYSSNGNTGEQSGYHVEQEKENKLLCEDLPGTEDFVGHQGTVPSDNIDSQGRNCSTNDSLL
Sequence of Serotonin 5HT2A receptor (Human) (P28223 whole entry): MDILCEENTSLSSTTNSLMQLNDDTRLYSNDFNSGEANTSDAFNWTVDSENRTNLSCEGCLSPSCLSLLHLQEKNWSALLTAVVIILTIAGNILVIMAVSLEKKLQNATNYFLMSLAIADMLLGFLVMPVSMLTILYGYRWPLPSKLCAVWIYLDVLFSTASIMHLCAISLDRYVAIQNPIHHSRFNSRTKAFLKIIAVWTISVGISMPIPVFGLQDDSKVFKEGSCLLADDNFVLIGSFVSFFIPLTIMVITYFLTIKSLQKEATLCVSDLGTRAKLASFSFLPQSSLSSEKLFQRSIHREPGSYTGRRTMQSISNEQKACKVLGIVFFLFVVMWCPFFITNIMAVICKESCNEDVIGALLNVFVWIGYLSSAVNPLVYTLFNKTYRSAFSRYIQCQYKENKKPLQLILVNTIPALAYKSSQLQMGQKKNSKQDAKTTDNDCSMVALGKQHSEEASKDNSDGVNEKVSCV
Sequence of Opiate ORL1 receptor (Human) (P41146 whole entry): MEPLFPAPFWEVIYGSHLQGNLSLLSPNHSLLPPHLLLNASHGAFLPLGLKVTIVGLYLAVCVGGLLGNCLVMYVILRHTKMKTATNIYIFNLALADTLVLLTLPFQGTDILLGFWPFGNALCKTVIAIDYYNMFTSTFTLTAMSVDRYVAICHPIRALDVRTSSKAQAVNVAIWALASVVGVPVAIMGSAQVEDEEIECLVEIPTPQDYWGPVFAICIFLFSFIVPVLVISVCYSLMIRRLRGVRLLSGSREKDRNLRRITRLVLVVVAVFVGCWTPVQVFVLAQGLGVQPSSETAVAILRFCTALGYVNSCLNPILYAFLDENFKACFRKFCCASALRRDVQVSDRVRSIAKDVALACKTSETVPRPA
Sequence of Angiotensin AT2 receptor (Human) (P50052 whole entry): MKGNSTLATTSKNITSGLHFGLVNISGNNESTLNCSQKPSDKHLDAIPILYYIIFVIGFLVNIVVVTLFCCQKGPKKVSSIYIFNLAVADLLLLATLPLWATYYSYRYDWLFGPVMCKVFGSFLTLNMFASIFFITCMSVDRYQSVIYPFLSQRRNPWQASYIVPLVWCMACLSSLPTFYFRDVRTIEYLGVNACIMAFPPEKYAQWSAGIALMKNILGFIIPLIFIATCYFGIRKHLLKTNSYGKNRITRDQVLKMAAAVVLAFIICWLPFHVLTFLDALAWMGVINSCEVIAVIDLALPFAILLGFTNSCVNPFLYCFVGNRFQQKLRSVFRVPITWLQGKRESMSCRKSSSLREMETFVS
Sequence of Adenosine A3 receptor (Human) (P0DMS8 whole entry): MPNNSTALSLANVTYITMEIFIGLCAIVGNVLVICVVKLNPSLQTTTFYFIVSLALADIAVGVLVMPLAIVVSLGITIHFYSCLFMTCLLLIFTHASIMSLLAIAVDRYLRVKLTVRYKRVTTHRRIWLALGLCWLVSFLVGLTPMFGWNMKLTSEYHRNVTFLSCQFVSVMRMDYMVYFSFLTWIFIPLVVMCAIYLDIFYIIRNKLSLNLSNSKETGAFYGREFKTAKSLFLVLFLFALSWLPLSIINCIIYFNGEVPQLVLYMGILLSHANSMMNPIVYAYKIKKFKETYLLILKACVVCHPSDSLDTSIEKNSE
Sequence of Norepinephrine transporter (Human) (P23975 whole entry): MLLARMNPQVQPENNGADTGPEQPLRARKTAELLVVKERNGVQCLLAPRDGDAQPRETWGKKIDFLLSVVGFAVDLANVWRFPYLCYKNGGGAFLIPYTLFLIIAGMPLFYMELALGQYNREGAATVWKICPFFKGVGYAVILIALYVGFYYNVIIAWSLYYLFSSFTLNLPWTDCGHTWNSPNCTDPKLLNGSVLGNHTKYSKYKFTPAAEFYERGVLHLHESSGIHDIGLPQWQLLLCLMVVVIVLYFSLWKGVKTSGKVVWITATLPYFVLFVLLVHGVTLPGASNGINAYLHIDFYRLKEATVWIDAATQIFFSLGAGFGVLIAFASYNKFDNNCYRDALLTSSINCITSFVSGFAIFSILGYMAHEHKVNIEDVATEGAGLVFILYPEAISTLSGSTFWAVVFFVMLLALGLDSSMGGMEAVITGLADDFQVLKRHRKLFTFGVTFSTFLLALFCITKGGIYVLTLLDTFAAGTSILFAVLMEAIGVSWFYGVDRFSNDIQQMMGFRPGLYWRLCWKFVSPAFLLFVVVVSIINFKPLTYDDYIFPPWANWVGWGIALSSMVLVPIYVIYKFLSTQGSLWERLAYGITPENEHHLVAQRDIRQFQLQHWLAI
Sequence of α2B-Adrenergic receptor (Human) (P18089 whole entry): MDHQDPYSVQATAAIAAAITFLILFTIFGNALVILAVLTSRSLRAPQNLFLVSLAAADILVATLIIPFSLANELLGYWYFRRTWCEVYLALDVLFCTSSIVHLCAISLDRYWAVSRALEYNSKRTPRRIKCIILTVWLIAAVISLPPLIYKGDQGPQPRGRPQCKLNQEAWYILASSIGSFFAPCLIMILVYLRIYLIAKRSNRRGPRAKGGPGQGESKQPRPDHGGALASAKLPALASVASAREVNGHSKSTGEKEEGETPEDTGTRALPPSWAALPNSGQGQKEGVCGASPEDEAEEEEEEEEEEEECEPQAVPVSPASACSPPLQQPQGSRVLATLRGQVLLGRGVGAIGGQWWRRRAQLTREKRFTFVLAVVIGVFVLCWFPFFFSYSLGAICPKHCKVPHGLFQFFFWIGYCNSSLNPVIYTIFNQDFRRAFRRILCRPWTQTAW
Sequence of Vasopressin V2 receptor (Human) (P30518 whole entry): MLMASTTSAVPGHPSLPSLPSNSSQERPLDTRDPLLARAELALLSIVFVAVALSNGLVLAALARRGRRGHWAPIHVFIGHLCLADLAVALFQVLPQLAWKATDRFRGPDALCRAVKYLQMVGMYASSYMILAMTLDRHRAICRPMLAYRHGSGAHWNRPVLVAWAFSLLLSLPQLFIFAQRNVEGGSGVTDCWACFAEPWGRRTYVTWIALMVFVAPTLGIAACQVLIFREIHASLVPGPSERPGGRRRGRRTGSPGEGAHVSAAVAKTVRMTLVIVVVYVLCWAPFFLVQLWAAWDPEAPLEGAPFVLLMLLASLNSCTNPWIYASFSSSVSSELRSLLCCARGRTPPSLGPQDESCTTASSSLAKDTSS
Sequence of Histamine H1 receptor (Human) (P35367 whole entry): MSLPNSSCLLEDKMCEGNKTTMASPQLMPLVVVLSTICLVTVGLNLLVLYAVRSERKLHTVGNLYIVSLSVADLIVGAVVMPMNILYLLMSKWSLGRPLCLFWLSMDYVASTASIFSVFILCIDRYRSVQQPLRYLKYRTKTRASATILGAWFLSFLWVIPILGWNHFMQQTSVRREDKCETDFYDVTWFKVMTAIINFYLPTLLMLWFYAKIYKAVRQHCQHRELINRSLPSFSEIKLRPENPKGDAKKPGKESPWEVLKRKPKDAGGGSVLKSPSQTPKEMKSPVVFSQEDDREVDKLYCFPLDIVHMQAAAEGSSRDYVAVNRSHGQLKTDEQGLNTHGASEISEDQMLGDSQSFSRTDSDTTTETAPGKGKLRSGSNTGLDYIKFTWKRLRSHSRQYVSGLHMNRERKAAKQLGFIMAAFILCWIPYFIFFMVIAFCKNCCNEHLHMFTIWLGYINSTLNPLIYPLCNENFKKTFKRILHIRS
Sequence of Angiotensin AT1 receptor (Human) (P30556 whole entry): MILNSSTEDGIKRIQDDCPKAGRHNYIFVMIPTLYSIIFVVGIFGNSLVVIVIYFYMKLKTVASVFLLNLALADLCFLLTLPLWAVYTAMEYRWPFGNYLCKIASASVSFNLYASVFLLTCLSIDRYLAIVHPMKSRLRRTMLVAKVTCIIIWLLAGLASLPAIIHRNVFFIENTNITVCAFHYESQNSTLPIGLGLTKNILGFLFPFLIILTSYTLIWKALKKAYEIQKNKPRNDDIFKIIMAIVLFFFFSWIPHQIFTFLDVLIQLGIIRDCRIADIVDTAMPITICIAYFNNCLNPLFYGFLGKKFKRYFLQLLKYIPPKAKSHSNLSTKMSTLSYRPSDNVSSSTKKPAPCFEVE
Sequence of Bradykinin B1 receptor (Human) (P46663 whole entry): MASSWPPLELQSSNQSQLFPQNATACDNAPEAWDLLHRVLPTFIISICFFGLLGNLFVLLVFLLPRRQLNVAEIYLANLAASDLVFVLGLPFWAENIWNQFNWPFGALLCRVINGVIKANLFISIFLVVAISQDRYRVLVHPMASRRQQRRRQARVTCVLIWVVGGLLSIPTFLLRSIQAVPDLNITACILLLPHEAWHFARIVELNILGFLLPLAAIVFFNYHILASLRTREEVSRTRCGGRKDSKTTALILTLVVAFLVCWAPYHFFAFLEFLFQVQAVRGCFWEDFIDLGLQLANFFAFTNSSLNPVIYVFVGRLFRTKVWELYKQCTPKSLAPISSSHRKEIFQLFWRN

With `CC(C)[C@@H]1CC[C@@H](C)C[C@H]1O` [l-menthol] the “Inhibition by l-Menthol (%)” value [1] was 5.11%, the “Inhibition by l-Menthol (%)” value [2] was 21.87% and the “Inhibition of the binding of 32 isotope-labeled ligands (Table 3 (b))” value [3] was “did not measurably inhibit”. The “Inhibition rates, 9 isotope-labeled ligands (Table 3 (a))” value [3] was under 1%, the “Inhibition by l-Menthol (%)” value [4] was 0% and the “Inhibition by l-Menthol (%)” value [5] was 0%. For the same compound, the “Inhibition by l-Menthol (%)” value [6] was 11.34%, the “Inhibition by l-Menthol (%)” value [7] was 3.79% and the “Inhibition by l-Menthol (%)” value [8] was 8.32%. The “Inhibition by l-Menthol (%)” value [9] was 0%, the “Inhibition by l-Menthol (%)” value [10] was 0.2% and the “Inhibition by l-Menthol (%)” value [11] was 14.04%. For the same compound, the “Inhibition by l-Menthol (%)” value [12] was 0%, the “Inhibition by l-Menthol (%)” value [13] was 8.22% and the “Inhibition by l-Menthol (%)” value [14] was 0%. The “Inhibition by l-Menthol (%)” value [15] was 2.87%, the “Inhibition by l-Menthol (%)” value [16] was 6.03% and the “Inhibition by l-Menthol (%)” value [17] was 0%. The “Inhibition by l-Menthol (%)” value [18] was 5.13%, the “Inhibition by l-Menthol (%)” value [19] was 0.86% and the “Inhibition by l-Menthol (%)” value [20] was 0.68%. For the same compound, the “Inhibition by l-Menthol (%)” value [21] was 7.75%, the “Inhibition by l-Menthol (%)” value [22] was 16.92% and the “Inhibition by l-Menthol (%)” value [23] was 0%. The “Inhibition by l-Menthol (%)” value [24] was 0%, the “Inhibition by l-Menthol (%)” value [25] was 13.53% and the “Inhibition by l-Menthol (%)” value [26] was 0%. For the same compound, the “Inhibition by l-Menthol (%)” value [27] was 7.89%, the “Inhibition by l-Menthol (%)” value [28] was 0% and the “Inhibition by l-Menthol (%)” value [29] was 1.37%. For the same compound, the “Inhibition by l-Menthol (%)” value [30] was 6.12%, the “Inhibition by l-Menthol (%)” value [31] was 0% and the “Inhibition by l-Menthol (%)” value [32] was 2.48%. For the same compound, the “Inhibition by l-Menthol (%)” value [33] was 0%, the “Inhibition by l-Menthol (%)” value [34] was 5.76% and the “Inhibition by l-Menthol (%)” value [35] was 6.53%. The “Inhibition by l-Menthol (%)” value [36] was 0%, the “Inhibition by l-Menthol (%)” value [37] was 0% and the “Inhibition by l-Menthol (%)” value [38] was 0%. For the same compound, the “Inhibition by l-Menthol (%)” value [39] was 1.76%, the “Concentration dependence of inhibition of the [3H]-EBOB binding” value [40] was “concentration-dependent” and the “Inhibition by l-Menthol (%)” value ([40]; 0.1 mM l-menthol, Rat cerebral cortex) was 20.9%. The pIC50 ([40]; read-out: IC50 for inhibition of the [3H]-EBOB binding, rat cerebral cortex preparation, 7 concentrations, duplicate) was 3.26, the pKi ([40]; read-out: Ki (mol/L), inhibition of the binding of [3H]-EBOB, GABAA (Picrotoxin site), Ki=IC50/(1+[L/Kd])) was 3.54 and the “Inhibition by l-Menthol (%)” value [41] was 4.86%. For the same compound, the “Inhibition by l-Menthol (%)” value [42] was 0.3%.
